According to US20240197760A1, “ACTIVATORS OF INTEGRATED STRESS RESPONSE PATHWAY FOR PROTECTION AGAINST FERROPTOSIS” (Burke Neurological Institute, priority 2021, published 2024):
“Also recorded” adds a separate entry of the source.

Experiments:
[1] = system: Bdnf; assay: Bdnf gene expression in mouse brain cortex after intraperitoneal injection; type: in vivo
[2] = system: rats; conditions: dietary supplementation in rats; cited from earlier work
[3] = system: Trib3, Chac1, Bip; assay: Expression of ATF4 target genes and chaperone Bip in mouse primary neurons; type: cell-based; conditions: 6 h, mouse primary neurons
Procedure: Total RNA was extracted from primary cortical neurons using NucleoSpin RNA II Kit (Clontech, Catalog number—740955-250). Thereafter, using the Taqman RNA-to-Ct, one step kit (Thermo Fisher Scientific, catalog number—4392938) and following the manufacturer's instructions, […] from each sample was mixed with the Taqman® Gene Expression Master Mix and Taqman® Gene Expression Assays for Creb1 (Catalog number—Mm00501607_m1), Bdnf (Catalog number—Mm04230607_s1), Rbbp4 (Catalog number—Mm00771401_g1), Bip (Catalog number—Mm00517691_m1), Trib3 (Catalog number—Mm00454879_m1), and Chac1 (Catalog number—Mm00509926_m1) with FAM labelled probe and Actin with VIC labelled probe all from Thermo Fisher Scientific on an Applied Biosystems 7500 Fast Real Time PCR System. For assessing gene expression of various specific Bdnf exons in mouse primary neurons, two step qPCR was used. Total RNA from primary cortical neurons was extracted using NucleoSpin RNA II Kit (Clontech, Catalog number—740955-250) and a total of 1.5 μg RNA was used to synthesize cDNA with the SuperScript® III First-Strand Synthesis System (Thermo Fisher Scientific, Catalog number—18080051). Quantitative RT-PCR was then performed using SYBR green (Thermo Fisher Scientific, Catalog number—4309155) on an Applied Biosystems 7500 Fast Real Time PCR System. Quantitative levels for all genes were normalized to the housekeeping gene GAPDH and expressed relative to the relevant control samples as fold change. The sequences of primers used in this part of the study were as follows: Bdnf I forward: […] (SEQ ID NO:9) and Bdnf I reverse: […] (SEQ ID NO:10); Bdnf II forward: […] (SEQ ID NO:11) and Bdnf II reverse: […] (SEQ ID NO:12); Bdnf IV forward #2: […] (SEQ ID NO:13) and Bdnf IV reverse #2: […] (SEQ ID NO:14); Bdnf VI forward: […] (SEQ ID NO:15) and Bdnf VI reverse: […] (SEQ ID NO:16); Bdnf VII forward: […] (SEQ ID NO:17) and Bdnf VII reverse: […] (SEQ ID NO:18) Bdnf IX forward: […] (SEQ ID NO:19) and Bdnf IX reverse: […] (SEQ ID NO:20); Gapdh forward #2: […] (SEQ ID NO:21) and Gapdh reverse #2: […] (SEQ ID NO: 22).

[4] = system: ATF4; assay: In vivo bioluminescence imaging of 5′UTR ATF4 luciferase reporter in mouse brain; conditions: 10 mg/Kg intraperitoneally for 4 h
[5] = system: AMPK; assay: AMPK phosphorylation (threonine 172) immunoblot in primary cortical neurons; type: cell-based, mouse; conditions: increasing concentrations 1-15 mM, 4 h
Procedure: Whole cell proteins were extracted in Triton X-100 lysis buffer (1% Triton X-100, 1% SDS, 50 mM Tris-Cl, pH 7.4, 500 mM NaCl and 1 mM EDTA). Samples were boiled in Laemmli buffer and electrophoresed under reducing conditions on NuPAGER Novex 4-12% Bis-Tris Gel polyacrylamide gels (Invitrogen). Proteins were transferred to a nitrocellulose membrane (Bio-Rad) by electroblotting. Nonspecific binding was inhibited by incubation in Odyssey blocking buffer (LI-COR Biosciences). Antibodies against Glut3 (Abcam, Catalog no. AB41525, dilution 1:1000), actin (Sigma Aldrich, Catalog no. A5316, dilution 1:10000), BDNF (Santacruz Biotechnology, Catalog no. sc-546, dilution 1:10,000), tubulin (Sigma Aldrich, Catalog no. T8203, dilution 1:10000), p-AMPK (Cell Signaling Technology, Cat no. 2535L, dilution 1:1000), AMPK (Cell Signaling Technology, Cat no. 2532L, dilution 1:1000), GFP (Cell Signaling Technology, Cat no. 2555S, dilution 1:2000), elF2S1 (phospho S51) (Abcam, Catalog no. AB32157, dilution 1:500), and eIF2α (Cell Signaling Technology, Cat no. 9722, dilution 1:500) were diluted in odyssey blocking buffer and the membranes were incubated overnight at 4° C. […] Finally, proteins were detected using an Odyssey infrared imaging system (LI-COR Biosciences).

[6] = system: AMP/ATP ratio; assay: AMP/ATP ratio from metabolic profiling of mouse primary neurons; type: cell-based; conditions: 10 mM, 8 h
Procedure: Targeted Metabolite profiling was performed according to a method described in a previous publication (Chen et al., 2016). Polar metabolites were extracted using cold 80% methanol. The extracts were dried completely with a Speedvac and redissolved in water before it was applied to the hydrophilic interaction chromatography LC-MS. The sample injection order was randomized. Metabolites were measured on a Q Exactive Orbitrap mass spectrometer (Thermo Scientific), which was coupled to a Vanquish UPLC system (Thermo Scientific) via an Ion Max ion source with a HESI II probe (Thermo Scientific). A Sequant ZIC-[…] column (2.1 mm i.d.×150 mm, particle size of 5 μm, Millipore Sigma) was used for separation of metabolites. A 2.1×20 mm guard column with the same packing material was used for protection of the analytical column. Flow rate was set at […]. […] The MS data was processed using XCalibur 4.1 (Thermo Scientific) to extract the metabolite signal intensity for relative quantitation. […] In pathway enrichment analysis, a single P value is calculated for each metabolic pathway. Pathway topology analysis measured the significance of a given experimentally identified metabolite in a pre-defined metabolic pathway.

OC[C@H]1OC(O)C[C@@H](O)[C@@H]1O (stereo partly drawn) [2-DG, (4R,5S,6R)-6-(hydroxymethyl)oxane-2,4,5-triol]
Bdnf gene expression in mouse brain cortex ([1]; 10 mg/Kg intraperitoneal injection for 6 h): significant increase | driving the adaptive plasticity program ([1]; intraperitoneal injection at 10 mg/Kg): sufficient in driving the adaptive plasticity program | physiological effects (insulin level, body temperature, blood pressure, heart rate, plasma glucose level, stress adaptation) [2]: mimic the physiological effects of calorie restriction | expression of ATF4 target genes Trib3 and Chac1 [3]: enhanced expression; also recorded: Increase | ATF4 translation in the mouse brain (luciferase activity) [4]: significant increase | level of AMPK phosphorylation at threonine 172 [5]: biphasic | AMP-ATP ratio [6]: increase
